Test results taken from paper PMC8791944, “GLUT3 inhibitor discovery through in silico ligand screening and in vivo validation in eukaryotic expression systems” (Scientific Reports, 2022).
Read-outs that look alike come from different tables or passages of the source.

Legend:
Format in all cases: cell-based
[1] = system: Caco-2 (colon cancer) cells; assay: MTT cancer cell viability assay, Caco-2; settings: Homo sapiens
Procedure: (§1) A possible therapeutic application of GLUT3 inhibitors is in oncology, especially for cancers in which GLUT3 is a poor prognosis marker. We tested the effect of GLUT3 inhibitors on the cell viability of several different cancer lines: myeloid leukemia (HL60 and U937), lung cancer (A549), colorectal adenocarcinoma (Caco-2), breast cancer (MCF7), hepatocellular carcinoma (HepG2), and choriocarcinoma (BeWo) cells. GLUT3 inhibitors, at five different concentrations, ranging from 2 to 100 µM, were incubated with cancer cells for 48 h. Then, cell viability was assessed with the MTT assay. […] G3iC and G3iD also affected the leukemia cell lines but at double the concentrations of G3iB and G3iE. […] G3iB had some cytotoxic activity (CC50 < 50 µM) against the highest number of cancer cell lines (HL60, U937, A549, HepG2, and MCF7).
(§2) Cancer cell viability in the presence of GLUT3 inhibitors was assayed using the MTT Cell Viability Kit (Biotium Inc, Freemont, CA) according to manufacturer’s instructions. Cancer cells were grown in the corresponding medium, at 37 °C and 5% CO2 in a humidified incubator. The media (Gibco) for leukemia cells (HL60 and U937), A549, MCF7, BeWo, and HepG2 cells were RPMI 1640, Ham’s F-12K, DMEM:F-12, Ham’s F-12K, and EMEM, respectively, all supplemented with 10% (v/v) fetal bovine serum (HyClone). Caco-2 cells were grown in EMEM supplemented with 20% (v/v) fetal bovine serum. Cells were detached from the culture flasks with Accutase (Innovative Cell Technologies, Inc., San Diego, CA) according to manufacturer’s instructions. Cells were seeded in 96-well plates, at a density of ~ 30,000 cells/well (in 100 µl fresh media) and incubated with varying concentrations of GLUT3 inhibitors for 48 h, at 37 °C and 5% CO2 in a humidified incubator. The inhibitors were dissolved in DMSO, at 100× the final concentration, so that 1 µl of the stock inhibitor concentration was added per well, making the final DMSO concentration 1% (v/v). Therefore, controls for 100% cell viability were cells with 1% (v/v) DMSO without the inhibitors. Controls for 0% cell viability were cells treated with 0.3% (v/v) Tween 20. For MTT assay, 10 µl of MTT reagent was added in each well followed by 3–4 h incubation at 37 °C and 5% CO2 in a humidified incubator. After thoroughly mixing in 200 µl DMSO in each well, the plates were put into a plate reader (BioTek Synergy H1), and the absorbances at 570 nm and 630 nm were measured with Gen5 program (BioTek Inc.). The experimental values represent Abs570 nm-Abs630 nm with each inhibitor condition and control being the average of three wells.
(§3) Supplementary Figure S8. Effect of GLUT3 inhibitors on the viability of various cancer cell lines. Cell viability was determined by MTT assay in A549 (lung cancer), BeWo (choriocarcinoma), Caco-2 (colon cancer), HepG2 (liver cancer), HL-60 (leukemia), MCF7 (breast cancer), and U937 (histiocytic lymphoma) cell lines. GLUT3 inhibitors at concentrations of 2, 5, 10, 20, 50, and 100 µM were incubated with cells in 96-well plates for 48 hours before the addition of the MTT reagent.

[2] = system: HepG2 (liver cancer) cells; assay: MTT cancer cell viability assay, HepG2; settings: HepG2, 48 h
Procedure: as §1, §2, §3

[3] = system: BeWo (choriocarcinoma) cells; assay: MTT cancer cell viability assay, BeWo; settings: Homo sapiens, 48 h
Procedure: as §1, §2, §3

[4] = system: U937 leukemia cells; assay: MTT cancer cell viability assay, U937; settings: U937, 48 h
Procedure: as §1, §2, §3

[5] = system: A549 (lung cancer) cells; assay: MTT cancer cell viability assay, A549; settings: A549, 48 h
Procedure: as §1, §2, §3

[6] = system: HL60 leukemia cells; assay: MTT cancer cell viability assay, HL60; settings: HL60, 48 h
Procedure: as §1, §2, §3

[7] = Caco-2, Caco2, 48 h, MTT, read-out: CC50

COc1ccccc1-n1c(/C=C/c2ccc(O)cc2)nc2ccc(Br)cc2c1=O [G3iB, 6-bromo-2-[(E)-2-(4-hydroxyphenyl)ethenyl]-3-(2-methoxyphenyl)quinazolin-4(3H)-one]
CC50 ([1]; Caco-2, 48 h): > 50 µM | CC50 [2]: 39.3 ± 4 µM | CC50 ([2]; Homo sapiens): < 50 µM | CC50 [3]: > 50 µM

Cc1cc(NC(=O)CCC2Cc3ccccc3NC2=O)nc(-c2ccccc2)n1 (centres unmarked) [G3iD]
CC50 ([4]; Homo sapiens, U-937, 48 h): > 50 µM | CC50 ([5]; Homo sapiens): 32.5 ± 14.2 µM | CC50 [1, 7]: > 100 µM | CC50 ([2]; Homo sapiens): > 100 µM | CC50 [3]: > 100 µM | CC50 ([6]; Homo sapiens, HL-60, 48 h): 28.7 ± 2.1 µM

O=C(Nc1cccc(Cl)c1)c1cccc(NC(=O)c2cccc([N+](=O)[O-])c2)c1 [G3iE, N-{3-[(3-chloroanilino)carbonyl]phenyl}-3-nitrobenzamide]
CC50 ([4]; Homo sapiens, U-937, 48 h): < 20 µM | CC50 [4]: ~18 µM | CC50 [5]: > 50 µM | CC50 ([5]; Homo sapiens): ~33 µM | CC50 [1, 7]: > 50 µM | CC50 ([2]; Homo sapiens): > 100 µM | CC50 [3]: > 50 µM | CC50 [6]: 15.7 ± 0.8 µM | CC50 ([6]; Homo sapiens, HL-60, 48 h): < 20 µM

Cc1cccnc1OC1CCN(c2cc(N3CCCC3CO)ncn2)CC1 (centres unmarked) [G3iC]
CC50 ([4]; Homo sapiens, U-937, 48 h): > 50 µM | CC50 [5]: 21.6 ± 2.5 µM | CC50 ([5]; Homo sapiens): ~22 µM | CC50 [1, 7]: > 100 µM | CC50 ([2]; Homo sapiens): > 100 µM | CC50 [3]: > 100 µM | CC50 ([6]; Homo sapiens, HL-60, 48 h): 31.1 ± 3.8 µM

Cc1ccccc1CN(Cc1nnc(C(C)(C)C)o1)c1ccc2nc(O)[nH]c2c1 [G3iF]
CC50 ([4]; Homo sapiens, U-937, 48 h): > 50 µM | CC50 ([5]; Homo sapiens): > 100 µM | CC50 [1, 7]: > 100 µM | CC50 ([2]; Homo sapiens): > 100 µM | CC50 [3]: ~100 µM | CC50 ([6]; Homo sapiens, HL-60, 48 h): > 50 µM

CC(=O)Nc1ccc(S(=O)(=O)Nc2ccc(Nc3cc(N(C)C)nc(C)n3)cc2)cc1 [G3iA, N-(4-{[(4-{[6-(dimethylamino)-2-methylpyrimidin-4-yl]amino}phenyl)amino]sulfonyl}phenyl)acetamide]
CC50 ([4]; Homo sapiens, U-937, 48 h): > 100 µM | CC50 ([5]; Homo sapiens): > 100 µM | CC50 [1, 7]: > 100 µM | CC50 ([2]; Homo sapiens): > 100 µM | CC50 [3]: > 100 µM | CC50 ([6]; Homo sapiens, HL-60, 48 h): > 100 µM
